Laboratory results as given in paper PMC4950319, “Kinetic and structural characterization of amyloid‐β peptide hydrolysis by human angiotensin‐1‐converting enzyme” (The Febs Journal, 2016).
Several values for one entry are separate records, joined by “and”; a condition that tells them apart may be missing. Equal values may be shown once. Entries after “also recorded” stand apart in the source; their conditions may differ.

Columns and labels:
N‐sACE = molecular target: T1, N‐sACE (Homo sapiens, UniProt P12821, H988K/H992K); test: Aβ(4–10)Y hydrolysis by N‐sACE, fluorogenic assay; type: biochemical; details: fluorescence λex 320 nm, λem 420 nm, Hepes pH 7.5 buffer as for Aβ(4–10)Q, 5 min time point, enzyme 0.113 pmol, n = 3
T1 construct: Both constructs have the complete signal, transmembrane and stalk region corresponding to full‐length sACE; made in house; host or cells: CHO cells; purified from cell lysate
T1 sequence (P12821 30-1306 H988K/H992K): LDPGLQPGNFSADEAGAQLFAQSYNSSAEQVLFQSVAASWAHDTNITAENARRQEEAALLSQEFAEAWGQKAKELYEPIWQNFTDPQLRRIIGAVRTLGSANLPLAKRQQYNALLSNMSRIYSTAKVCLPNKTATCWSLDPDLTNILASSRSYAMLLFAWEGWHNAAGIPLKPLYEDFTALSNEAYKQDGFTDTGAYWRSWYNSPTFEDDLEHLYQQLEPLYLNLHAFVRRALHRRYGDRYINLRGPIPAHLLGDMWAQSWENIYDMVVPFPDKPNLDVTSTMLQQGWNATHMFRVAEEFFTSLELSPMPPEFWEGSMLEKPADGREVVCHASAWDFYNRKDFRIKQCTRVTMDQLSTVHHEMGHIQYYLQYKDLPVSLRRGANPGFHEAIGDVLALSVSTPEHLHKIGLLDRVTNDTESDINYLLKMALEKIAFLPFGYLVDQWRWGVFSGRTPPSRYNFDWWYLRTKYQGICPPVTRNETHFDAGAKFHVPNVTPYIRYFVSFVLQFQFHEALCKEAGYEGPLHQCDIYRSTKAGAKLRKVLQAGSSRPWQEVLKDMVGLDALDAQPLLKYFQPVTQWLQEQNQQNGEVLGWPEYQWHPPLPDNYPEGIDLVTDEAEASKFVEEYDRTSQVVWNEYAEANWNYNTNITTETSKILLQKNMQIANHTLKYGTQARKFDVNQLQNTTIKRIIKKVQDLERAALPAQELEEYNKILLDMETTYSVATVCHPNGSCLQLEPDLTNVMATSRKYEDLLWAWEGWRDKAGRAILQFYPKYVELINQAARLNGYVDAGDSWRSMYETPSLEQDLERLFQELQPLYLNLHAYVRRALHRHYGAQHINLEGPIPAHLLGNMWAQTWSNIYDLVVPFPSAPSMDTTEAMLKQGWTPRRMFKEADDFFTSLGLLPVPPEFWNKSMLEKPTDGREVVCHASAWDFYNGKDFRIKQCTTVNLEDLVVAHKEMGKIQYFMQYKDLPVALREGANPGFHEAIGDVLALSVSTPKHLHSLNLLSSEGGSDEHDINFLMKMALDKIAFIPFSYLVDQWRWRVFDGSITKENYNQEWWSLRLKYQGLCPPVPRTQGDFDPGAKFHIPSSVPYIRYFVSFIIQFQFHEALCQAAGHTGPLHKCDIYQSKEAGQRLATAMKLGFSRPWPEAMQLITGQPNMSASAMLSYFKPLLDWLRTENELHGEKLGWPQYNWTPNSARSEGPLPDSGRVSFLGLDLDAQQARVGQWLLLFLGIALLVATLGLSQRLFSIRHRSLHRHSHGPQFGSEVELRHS
Text: (§1) Fluorogenic substrates designed around the established N‐terminal Asp7‐Ser8 cleavage site of the full‐length Aβ(1–42) were used to develop a higher throughput assay. There are two variations of the short fluorogenic peptides: Aβ(4–10)Q (Abz‐FRHDSG(Q)‐EDDnp) which has an N‐terminal Abz donor and a C‐terminal EDDnp quencher group attached to an additional Gln residue. The second peptide, Aβ(4–10)Y (Abz‐FRHDSG‐(NT)) has a different quencher molecule, NT, which substitutes for the naturally occurring Tyr residue.
(§2) An alternative fluorogenic peptide, Abz‐FRHDSG‐(NT) (BIOPEP™ South Africa) was assayed, with 100 μL enzyme and 100 μL substrate (at a final enzyme concentration within 10% hydrolysis of total substrate; see Table 3) as above, in 96‐well plates. The samples were read at the 5 min time point on a Cary Eclipse spectrofluorimeter (Varian Inc.) at λex = 320 nm and λem = 420 nm. Kinetic constants, inner filter effect and standard curves were calculated as above.
(§3) Statistical analysis of the data was determined by Student's t test. Differences with P < 0.05 were considered statistically significant. Fractional error was calculated for the k cat/K m ratio with the following equation: ΔZ=ZΔa/a^2+Δb/b^2 where Z represents the mean k cat/K m and ΔZ represents the fractional error. The Δa represents the SEM of the mean k cat (a). Similarly, Δb represents the SEM of the mean K m (b).

sACE = molecular target: T2, sACE (Homo sapiens, UniProt P12821); test: Aβ(4–10)Y hydrolysis by sACE, fluorogenic assay; type: biochemical
T2 construct: made in house; host or cells: CHO cells; purified from cell lysate
T2 sequence (P12821 30-1306): as the sequence (P12821 30-1306 H988K/H992K) above, with K959H, K963H counted along it
Text: as §1, §2, §3

[1] = molecular target: T3, Ndom (soluble form of the N‐domain of sACE) (Homo sapiens, UniProt P12821); test: Aβ(4–10)Y hydrolysis by Ndom, fluorogenic assay; type: biochemical
T3 construct: made in house; host or cells: CHO cells
T3 sequence (P12821 30-658): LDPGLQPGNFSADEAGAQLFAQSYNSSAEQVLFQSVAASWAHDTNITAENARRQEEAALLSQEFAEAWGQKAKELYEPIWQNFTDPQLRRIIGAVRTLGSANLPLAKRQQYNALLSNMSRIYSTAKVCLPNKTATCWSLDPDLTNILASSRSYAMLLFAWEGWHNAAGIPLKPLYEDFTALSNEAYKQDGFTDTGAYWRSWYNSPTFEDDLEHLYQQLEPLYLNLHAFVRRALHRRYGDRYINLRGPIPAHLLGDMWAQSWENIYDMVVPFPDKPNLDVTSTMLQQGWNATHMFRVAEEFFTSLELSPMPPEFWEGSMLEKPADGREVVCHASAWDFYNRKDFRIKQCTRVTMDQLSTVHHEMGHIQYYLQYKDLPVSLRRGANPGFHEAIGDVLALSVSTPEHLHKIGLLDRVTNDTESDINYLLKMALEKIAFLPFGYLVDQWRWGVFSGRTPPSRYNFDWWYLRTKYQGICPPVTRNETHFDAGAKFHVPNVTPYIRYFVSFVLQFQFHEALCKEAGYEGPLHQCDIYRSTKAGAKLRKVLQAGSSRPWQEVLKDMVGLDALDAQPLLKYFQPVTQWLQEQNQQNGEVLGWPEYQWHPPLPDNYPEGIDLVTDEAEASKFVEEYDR
Text: as §1, §2, §3

ACE variants = test: Cleavage‐site analysis by MALDI‐TOF MS, kinetic assay conditions; type: biochemical, human; details: MALDI‐TOF MS of products within kinetic assay conditions; Aβ(1–16): all ACE variants except Cdom; Aβ(4–10) peptides: Cdom and CC‐sACE not analysed
Experimental: The mass spectrometry was analysed at the Centre for Proteomic and Genomic Research (Cape Town, South Africa). Briefly, the collected peptides were spotted onto a 10 mg·mL^−1 α‐cyano‐4‐hydroxycinnamic acid matrix (Fluka, USA) in 80% ACN, 0.2% TFA for a final concentration of 5 mg·mL^−1 matrix in 40% ACN, 0.1% TFA, 10 mM NH4H2PO4. Mass spectrometry was performed with a 4800 MALDI‐TOF/TOF (Applied Biosytems) with all spectra recorded in positive reflector mode. Spectra were generated with 400 laser shots/spectrum at a laser intensity of 3800 (arbitrary units) with a grid voltage of 16 kV.

C‐sACE = molecular target: T4, C‐sACE (Homo sapiens, UniProt P12821, H390K/H394K); test: Aβ(4–10)Y hydrolysis by C‐sACE, fluorogenic assay; type: biochemical
T4 construct: Both constructs have the complete signal, transmembrane and stalk region corresponding to full‐length sACE; made in house; host or cells: CHO cells; purified from cell lysate
T4 sequence (P12821 30-1306 H390K/H394K): as the sequence (P12821 30-1306 H988K/H992K) above, with H361K, H365K, K959H, K963H counted along it
Text: as §1, §2, §3

[2] = molecular target: T5, Cdom (soluble form of the C‐domain of sACE) (Homo sapiens, UniProt P12821); test: Aβ(4–10)Y hydrolysis by Cdom, fluorogenic assay; type: biochemical; details: fluorescence λex 320 nm, λem 420 nm, Hepes pH 7.5 buffer as for Aβ(4–10)Q, 5 min time point, enzyme 0.835 pmol, n = 3
T5 construct: lacks the transmembrane region and unique 36 amino acid N terminus (and is therefore identical to the sACE C‐domain); made in house; host or cells: CHO cells
T5 sequence (P12821 643-1222 limits assumed): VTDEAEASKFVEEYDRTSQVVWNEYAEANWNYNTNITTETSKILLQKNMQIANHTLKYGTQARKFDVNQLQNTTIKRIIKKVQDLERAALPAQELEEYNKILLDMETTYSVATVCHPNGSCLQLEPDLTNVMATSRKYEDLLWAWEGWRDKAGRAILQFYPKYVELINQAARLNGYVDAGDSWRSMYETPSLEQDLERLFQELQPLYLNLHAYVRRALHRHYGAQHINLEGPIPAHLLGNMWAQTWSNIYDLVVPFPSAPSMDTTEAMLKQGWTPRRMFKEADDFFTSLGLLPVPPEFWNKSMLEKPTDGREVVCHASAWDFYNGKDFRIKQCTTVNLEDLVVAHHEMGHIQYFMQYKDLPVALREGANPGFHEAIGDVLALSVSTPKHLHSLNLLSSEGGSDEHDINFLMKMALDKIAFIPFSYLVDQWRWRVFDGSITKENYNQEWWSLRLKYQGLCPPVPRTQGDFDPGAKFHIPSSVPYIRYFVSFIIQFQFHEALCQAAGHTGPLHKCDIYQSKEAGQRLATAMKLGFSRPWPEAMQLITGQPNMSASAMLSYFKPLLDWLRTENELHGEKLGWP
Text: as §1, §2, §3

CC‐sACE [3] = test: Aβ(4–10)Y hydrolysis by CC‐sACE, fluorogenic assay; type: biochemical, human; details: fluorescence λex 320 nm, λem 420 nm, Hepes pH 7.5 buffer as for Aβ(4–10)Q, 5 min time point, enzyme 0.071 pmol, n = 3
Sequence of CC‐sACE (P12821 643-1222 limits assumed): as above
Text: as §1, §2, §3

CC‐sACE [4] = test: Interdomain cooperativity of two C‐domains; type: biochemical, human; details: catalytic ability per active site versus individual domains
Experimental: as §2

[5] = mean ± fractional error of the ratio
[6] = fluorescence λex 320 nm, λem 420 nm, Hepes pH 7.5 buffer as for Aβ(4–10)Q, 5 min time point, enzyme 0.031 pmol, mean ± SEM, n = 3
[7] = fluorescence λex 320 nm, λem 420 nm, Hepes pH 7.5 buffer as for Aβ(4–10)Q, 5 min time point, enzyme 0.228 pmol, mean ± SEM, n = 3
[8] = fluorescence λex 320 nm, λem 420 nm, Hepes pH 7.5 buffer as for Aβ(4–10)Q, 5 min time point, enzyme 0.226 pmol, mean ± SEM, n = 3

With “Abz‐FRHDSG‐(NT) [Aβ(4–10)Y, fluorogenic Aβ(4–10) peptide with NT quencher substituting for Tyr]” the K m (N‐sACE; mean ± SEM) was 8.56 ± 0.83 µM, the V max (N‐sACE; mean ± SEM) was 0.44 ± 0.01 and the k cat (N‐sACE; mean ± SEM) was 3.87 ± 0.09 s⁻¹. The “k cat/K m” value (N‐sACE; [5]) was 4.61 ± 0.46 M^−1·s^−1 × 10^5, the K m (sACE; [6]) was 12.60 ± 2.48 µM and the V max (sACE; [6]) was 0.90 ± 0.18. The k cat (sACE; [6]) was 28.70 ± 5.81 s⁻¹, the “k cat/K m” value (sACE; fluorescence λex 320 nm, λem 420 nm, Hepes pH 7.5 buffer as for Aβ(4–10)Q, 5 min time point, enzyme 0.031 pmol, mean ± fractional error of the ratio, n = 3) was 22.67 ± 6.40 M^−1·s^−1 × 10^5 and the “catalytic efficiency of sACE, fold greater than Ndom” value (sACE; sACE versus Ndom, P < 0.05) was 2 fold. The “catalytic efficiency by Ndom relative to Aβ(1–16)” value ([1]; […] 10^5 versus […] 10^5 M^−1·s^−1) was “half the catalytic efficiency”, the K m [1, 7] was 21.20 ± 0.31 µM and the V max [1, 7] was 4.62 ± 0.14. For the same substance, the k cat [1, 7] was 20.30 ± 0.62 s⁻¹, the “k cat/K m” value ([1]; fluorescence λex 320 nm, λem 420 nm, Hepes pH 7.5 buffer as for Aβ(4–10)Q, 5 min time point, enzyme 0.228 pmol, mean ± fractional error of the ratio, n = 3) was 9.57 M^−1·s^−1 × 10^5 and 9.57 ± 0.33 M^−1·s^−1 × 10^5 and the “cleavage site (bond)” value (ACE variants) was “Asp7‐Ser8”. For the same substance, the “C‐sACE K m, fold larger than its active N‐domain counterpart” value (C‐sACE; C‐sACE versus active N‐domain counterpart, P < 0.05) was 2 fold, the K m (C‐sACE; [8]) was 38.10 ± 0.10 µM and the V max (C‐sACE; [8]) was 1.57 ± 0.09. For the same substance, the k cat (C‐sACE; [8]) was 6.95 ± 1.39 s⁻¹, the “k cat/K m” value (C‐sACE; fluorescence λex 320 nm, λem 420 nm, Hepes pH 7.5 buffer as for Aβ(4–10)Q, 5 min time point, enzyme 0.226 pmol, mean ± fractional error of the ratio, n = 3) was 1.83 ± 0.18 M^−1·s^−1 × 10^5 and the K m ([2]; mean ± SEM) was 27.23 ± 9.52 µM. The V max ([2]; mean ± SEM) was 4.45 ± 0.63, the k cat ([2]; mean ± SEM) was 5.33 ± 0.76 s⁻¹ and the “k cat/K m” value [2, 5] was 2.30 ± 0.87 M^−1·s^−1 × 10^5. For the same substance, the K m (CC‐sACE [3]; mean ± SEM) was 20.30 ± 2.55 µM, the V max (CC‐sACE [3]; mean ± SEM) was 0.90 ± 0.08 and the k cat (CC‐sACE [3]; mean ± SEM) was 12.70 ± 1.16 s⁻¹. For the same substance, the “k cat/K m” value (CC‐sACE [3]; [5]) was 6.33 ± 0.98 M^−1·s^−1 × 10^5 and the “cooperativity between the two C‐domains of CC‐sACE” value (CC‐sACE [4]) was “no cooperativity; also recorded: an additive effect between the two C‐domains”.
